Assays:
Format in all cases: cell-based
[1] = biological target: wild-type mouse muscle nAChR (αC192S-C193S background) (Mus musculus, UniProt P02716+P04756+P04760, C212S/C213S); assay: Effect of reducing/oxidizing reagents on ACh-induced current amplitude; conditions: DTT 10 mM, 2 min, ACh EC20–50
[2] = biological target: mouse muscle nAChR αT254C (Mus musculus, UniProt P02716+P04756+P04760, C212S/C213S/T274C); assay: as above; conditions: DTT 10 mM, 2 min; T254C; ACh EC20–50
[3] = biological target: mouse muscle nAChR αT254C+M278C (Mus musculus, UniProt P02716+P04756+P04760, C212S/C213S/M298C/T274C); conditions: 2 min
[4] = biological target: mouse muscle nAChR αT254C+L279C (Mus musculus, UniProt P02716+P04756+P04760, C212S/C213S/L299C/T274C); conditions: 2 min
[5] = second DTT 10 mM, after Cu:Phen and EGTA

Sequence of mouse muscle nAChR αT254C+L279C (P04756 21-457 C212S/C213S/T274C/L299C): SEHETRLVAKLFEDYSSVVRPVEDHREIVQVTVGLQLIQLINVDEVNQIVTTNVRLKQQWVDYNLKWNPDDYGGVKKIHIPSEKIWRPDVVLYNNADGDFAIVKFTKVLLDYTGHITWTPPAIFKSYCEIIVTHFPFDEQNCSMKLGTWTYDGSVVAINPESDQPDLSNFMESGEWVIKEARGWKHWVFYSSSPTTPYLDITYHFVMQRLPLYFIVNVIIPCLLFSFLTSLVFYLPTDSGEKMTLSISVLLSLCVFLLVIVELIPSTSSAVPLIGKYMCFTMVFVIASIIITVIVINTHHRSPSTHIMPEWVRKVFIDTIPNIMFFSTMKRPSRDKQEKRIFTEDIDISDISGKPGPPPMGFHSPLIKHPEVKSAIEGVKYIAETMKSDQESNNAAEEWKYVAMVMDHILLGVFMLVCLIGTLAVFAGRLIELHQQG
Sequence of mouse muscle nAChR αT254C+L279C (P09690 24-501 partner): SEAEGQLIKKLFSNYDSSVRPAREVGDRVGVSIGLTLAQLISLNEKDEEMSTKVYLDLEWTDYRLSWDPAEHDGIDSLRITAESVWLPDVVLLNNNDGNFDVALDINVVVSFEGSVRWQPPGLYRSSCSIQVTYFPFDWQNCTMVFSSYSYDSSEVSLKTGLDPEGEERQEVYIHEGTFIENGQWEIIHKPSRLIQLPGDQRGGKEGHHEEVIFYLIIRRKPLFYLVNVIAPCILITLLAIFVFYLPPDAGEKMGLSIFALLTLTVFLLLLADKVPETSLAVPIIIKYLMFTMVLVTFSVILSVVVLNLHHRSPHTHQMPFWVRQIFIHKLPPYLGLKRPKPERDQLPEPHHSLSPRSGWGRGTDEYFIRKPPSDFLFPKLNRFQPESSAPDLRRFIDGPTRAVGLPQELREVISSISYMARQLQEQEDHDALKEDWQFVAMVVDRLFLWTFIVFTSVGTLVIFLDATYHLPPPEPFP
Sequence of mouse muscle nAChR αT254C+L279C (P04760 23-519): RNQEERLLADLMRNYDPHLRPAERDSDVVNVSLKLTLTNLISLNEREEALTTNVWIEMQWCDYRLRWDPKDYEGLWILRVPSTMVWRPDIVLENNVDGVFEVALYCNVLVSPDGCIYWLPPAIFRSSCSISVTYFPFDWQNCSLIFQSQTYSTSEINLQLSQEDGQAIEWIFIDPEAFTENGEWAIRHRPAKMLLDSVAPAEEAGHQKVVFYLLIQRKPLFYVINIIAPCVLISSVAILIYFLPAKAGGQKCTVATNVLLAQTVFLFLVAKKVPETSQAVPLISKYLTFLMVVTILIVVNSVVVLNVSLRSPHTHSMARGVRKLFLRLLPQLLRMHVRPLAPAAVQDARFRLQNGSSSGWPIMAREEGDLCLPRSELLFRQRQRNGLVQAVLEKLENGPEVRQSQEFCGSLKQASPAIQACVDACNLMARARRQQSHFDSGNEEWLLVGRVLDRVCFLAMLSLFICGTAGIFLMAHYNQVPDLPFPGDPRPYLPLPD
Sequence of mouse muscle nAChR αT254C+L279C (P02716 25-520): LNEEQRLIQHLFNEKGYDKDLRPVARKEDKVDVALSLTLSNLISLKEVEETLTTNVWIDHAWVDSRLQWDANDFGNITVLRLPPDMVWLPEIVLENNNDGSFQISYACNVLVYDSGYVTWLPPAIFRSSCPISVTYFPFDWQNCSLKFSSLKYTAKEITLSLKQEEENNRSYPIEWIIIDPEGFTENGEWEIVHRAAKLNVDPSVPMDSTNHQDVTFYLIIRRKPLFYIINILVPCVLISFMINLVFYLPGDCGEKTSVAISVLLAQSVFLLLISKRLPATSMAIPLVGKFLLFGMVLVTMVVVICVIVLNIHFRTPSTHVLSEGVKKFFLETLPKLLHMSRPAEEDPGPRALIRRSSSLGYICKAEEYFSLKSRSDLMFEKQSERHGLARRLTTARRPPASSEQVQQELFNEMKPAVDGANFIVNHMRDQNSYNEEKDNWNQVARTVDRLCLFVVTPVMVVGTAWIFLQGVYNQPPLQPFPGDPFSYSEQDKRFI
Sequence of mouse muscle nAChR αT254C+M278C (P04756 21-457 C212S/C213S/T274C/M298C): as the sequence (P04756 21-457 C212S/C213S/T274C/L299C) above, with M278C, C279L counted along it
Sequence of mouse muscle nAChR αT254C+M278C (P09690 24-501 partner): as the sequence (P09690 24-501 partner) above
Sequence of mouse muscle nAChR αT254C+M278C (P04760 23-519): as the sequence (P04760 23-519) above
Sequence of mouse muscle nAChR αT254C+M278C (P02716 25-520): as the sequence (P02716 25-520) above
Sequence of wild-type mouse muscle nAChR (αC192S-C193S background) (P04756 21-457 C212S/C213S): as the sequence (P04756 21-457 C212S/C213S/T274C/L299C) above, with C254T, C279L counted along it
Sequence of wild-type mouse muscle nAChR (αC192S-C193S background) (P09690 24-501 partner): as the sequence (P09690 24-501 partner) above
Sequence of wild-type mouse muscle nAChR (αC192S-C193S background) (P04760 23-519): as the sequence (P04760 23-519) above
Sequence of wild-type mouse muscle nAChR (αC192S-C193S background) (P02716 25-520): as the sequence (P02716 25-520) above
Sequence of mouse muscle nAChR αT254C (P04756 21-457 C212S/C213S/T274C): as the sequence (P04756 21-457 C212S/C213S/T274C/L299C) above, with C279L counted along it
Sequence of mouse muscle nAChR αT254C (P09690 24-501 partner): as the sequence (P09690 24-501 partner) above
Sequence of mouse muscle nAChR αT254C (P04760 23-519): as the sequence (P04760 23-519) above
Sequence of mouse muscle nAChR αT254C (P02716 25-520): as the sequence (P02716 25-520) above

ACh-induced current amplitude after DTT compared to initial current [1] | ACh-induced current amplitude after DTT compared to initial current [2] | increase of current amplitudes by DTT after Cu:Phen [3, 5] [%] | decrease of current amplitudes by DTT after Cu:Phen [4, 5] [%] | SMILES | EGTA effect on ACh-induced current amplitudes ([3]; EGTA 2 mM, after Cu:Phen) [%] | EGTA effect on ACh-induced current amplitudes ([4]; EGTA 2 mM, after Cu:Phen) [%]
not significantly altered | not significantly altered | 29 ± 1 | 47 ± 11 | O[C@@H](CS)[C@@H](O)CS (racemic) [DTT, Dithiothreitol] | – | –
– | – | – | – | O=C(O)CN(CCOCCOCCN(CC(=O)O)CC(=O)O)CC(=O)O [EGTA, Ethylene glycol tetraacetic acid] | 1 ± 2 | −9 ± 3

Reference: publication PMC3676432 (Journal of neurochemistry, 2013)
